In the supplement of paper PMC6723410:

Assays:
[1] = system: GUMC-403; assay: AC50 for reduction of cell viability; higher = less potent; conditions: 48 h
[2] = system: GUMC-403; assay: viability at highest tested concentration (max response) relative to DMSO (% of DMSO control); higher = less cytotoxic; conditions: library / dose series: MIPE library, 11-point 1:3 dilution, 48 h
Outline: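 Plates of 1536 wells were seeded with 700 patient-derived GUMC-403 papilloma cells per well, grown by conditional reprogramming, in 5 μL F + Y medium and kept overnight at 37 °C. Compounds followed at 23 nL by pin tool over an 11-point 1:3 series, for 48 h. After a CellTiter-Glo luminescence read on a ViewLux, signals were set against vehicle wells as 100% and empty wells as 0%. The reported number is viability at the highest tested concentration relative to vehicle control.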

[3] = library / dose series: MIPE library, 11-point 1:3 dilution

Compound | AC50 for reduction of cell viability [1, 3] | viability ([2]; top concentration 46.1 µM) | viability ([2]; top concentration 92.2 µM) | viability ([2]; top concentration 23 µM) | AC50 for reduction of cell viability ([1]; library / dose series: NPC library, 8-point 1:5 dilution)
CS[C@H]1SC[C@@H]2C(=O)N(C)[C@H](C(C)C)C(=O)OC[C@H](NC(=O)c3cnc4ccccc4n3)C(=O)N[C@H](C)C(=O)N(C)[C@H]1C(=O)N(C)[C@H](C(C)C)C(=O)OC[C@H](NC(=O)c1cnc3ccccc3n1)C(=O)N[C@H](C)C(=O)N2C | 20.9 nM | 14.4 | – | – | –
CC(C)CC(=O)Nc1n[nH]c2c1CN(C(=O)C1CCN(C)CC1)C2(C)C | 1480 nM | 15.9 | – | – | –
CC(=O)N1CCN(c2ccc(OCc3nn(C)c(C)c3-c3cccc4c(CCCOc5cccc6ccccc56)c(C(=O)O)n(Cc5cccnc5)c34)cc2)CC1 | 7430 nM | 3.86 | – | – | –
Cc1ccc2nc(NCCN)c3ncc(C)n3c2c1 | 13200 nM | 33.4 | – | – | –
COc1ccc(-c2ccc3ncc4c(c3c2)n(-c2ccc(N3CCNCC3)c(C(F)(F)F)c2)c(=O)n4C)cn1 | 8330 nM | 3.16 | – | – | –
COc1ccc(-c2ccc3c(N4CCOC[C@@H]4C)nc(N4CCOC[C@@H]4C)nc3n2)cc1CO | 37.2 nM | 57.2 | – | – | –
CN1CCN(c2cc(C(=O)Nc3ccc4c(c3)-c3c(c(C(N)=O)nn3-c3ccc(F)cc3)CC4)c(Cl)cn2)CC1 | 5260 nM | 7.1 | – | – | –
O=C1c2c(O)ccc(O)c2C(=O)c2c(NCCNCCO)ccc(NCCNCCO)c21 | 7430 nM | 12.4 | – | – | –
CC(C)NC[C@@H](C(=O)N1CCN(c2ncnc3c2[C@H](C)C[C@H]3O)CC1)c1ccc(Cl)cc1 | 2350 nM | 76.6 | – | – | –
COc1cc2ncnc(Nc3ccc(F)c(Cl)c3)c2cc1OCCCN1CCOCC1 | 270 nM | – | 58.7 | – | –
COC1=C(OCCCN2CCOCC2)C=CC\3=C1/N=C(/NC(=O)C4=CN=C(N)N=C4)N5CC/N=C35 | 64.5 nM | – | – | 43.9 | –
OCCCNc1cc(-c2ccnc(Nc3cccc(Cl)c3)n2)ccn1 | 105 nM | 63.6 | – | – | –
COc1cccc2c1C(=O)c1c(O)c3c(c(O)c1C2=O)C[C@@](O)(C(C)=O)C[C@@H]3O[C@H]1C[C@H](N)[C@H](O)[C@H](C)O1 | 372 nM | 33.5 | – | – | –
COC(=O)/C=C/C(=O)OC | 3720 nM | 55.3 | – | – | –
CC(C)C[C@H](NC(=O)CNC(=O)c1cc(Cl)ccc1Cl)B(O)O | 3320 nM | 14.7 | – | – | –
N[S+](=O)([O-])OC[C@@H]1C[C@@H](n2ccc3c(N[C@H]4CCc5ccccc54)ncnc32)C[C@@H]1O | 469 nM | 60.8 | – | – | –
COC[C@H]1OC(=O)C2=COC3=C2[C@@]1(C)\C4=C(\[C@@H]5CC[C@H](O)[C@@]5(C)C[C@H]4OC(C)=O)C3=O | 4180 nM | 57.4 | – | – | –
CC(C)c1cc(C(=O)N2Cc3ccc(CN4CCN(C)CC4)cc3C2)c(O)cc1O | 833 nM | 75.9 | – | – | –
CCCCN1CCC(CNC(=O)c2c3n(c4ccccc24)CCCO3)CC1 | 16600 nM | 23.8 | – | – | –
O=C(Nc1c[nH]nc1-c1nc2cc(CN3CCOCC3)ccc2[nH]1)NC1CC1 | 6620 nM | 8.38 | – | – | –
C[C@H]([C@H]1C\C(=C(CO)/C(=O)O1)C)[C@H]2CC[C@H]3[C@@H]4C[C@H]5O[C@]56[C@@H](O)\C=C/C(=O)[C@]6(C)[C@H]4CC[C@]23C | 14800 nM | 5.02 | – | – | –
COc1cccc2c1C(=O)c1c(O)c3c(c(O)c1C2=O)C[C@@](O)(C(=O)CO)C[C@@H]3O[C@H]1C[C@H](N)[C@H](O)[C@H](C)O1 | 1870 nM | 34.7 | – | – | –

Compound | AC50 for reduction of cell viability [1, 3] | viability ([2]; top concentration 46.1 µM) | viability ([2]; top concentration 92.2 µM) | viability ([2]; top concentration 23 µM) | AC50 for reduction of cell viability ([1]; library / dose series: NPC library, 8-point 1:5 dilution)
CC(C)[C@]12O[C@H]1[C@@H]3O[C@@]34[C@@]5(C)CC\C6=C(COC6=O)/[C@@H]5C[C@@H]7O[C@]47[C@@H]2O | 33.2 nM | 22.7 | – | – | –
Oc1ccc(-c2ccc(-c3cc(Nc4cccc(CNC5CC5)c4)[nH]n3)cc2)c(O)c1 | 13200 nM | 13.7 | – | – | –
CCC1=C2CN3C(=O)\C4=C(/C=C3/C2=NC5=CC=C(O)C=C15)[C@@](O)(CC)C(=O)OC4 | 4690 nM | 78.2 | – | – | –
CN(c1ncccc1CNc1nc(Nc2ccc3c(c2)CC(=O)N3)ncc1C(F)(F)F)[S+](C)(=O)[O-] | 7430 nM | 28 | – | – | –
COC(=O)CCC1=C(C)C2=CC3=NC(=CC4=C(C)C(=C([NH]4)C=C\5N=C(C=C1[NH]2)\C(=C5C)CCC(O)=O)C=C)\C6=C\C=C(/[C@@H](C(=O)OC)[C@@]36C)C(=O)OC | 662 nM | 32.5 | – | – | –
CC(C)[C@H](C(=O)Nc1ccc(C(=O)NO)cc1)c1ccccc1 | 18700 nM | 11 | – | – | –
COc1cc2ncn(-c3cc(OCc4ccccc4C(F)(F)F)c(C(N)=O)s3)c2cc1OC | 23500 nM | 18.8 | – | – | –
Nc1nc(NCCNc2ncc(-n3ccnc3)c(-c3ccc(Cl)cc3Cl)n2)ccc1[N+](=O)[O-] | 2350 nM | 61.4 | – | – | –
C[C@@H](Oc1ccc2[nH]nc(/C=C/c3cnn(CCO)c3)c2c1)c1c(Cl)cncc1Cl | 16600 nM | 18.4 | – | – | –
COc1cc2ncnc(Nc3cc(Br)c(O)c(Br)c3)c2cc1OC | 1480 nM | 73.9 | – | – | –
CC(C)(O)c1cc2nc(-c3cnc(N)nc3)nc(N3CCOCC3)c2s1 | 148 nM | 33.5 | – | – | –
CC(=O)SCC(Cc1ccccc1)C(=O)NCC(=O)OCc1ccccc1 (configuration not stated) | 1180 nM | 42.8 | – | – | –
C/C=C1\NC(=O)[C@H]2CSSCC/C=C\[C@H](CC(=O)N[C@H](C(C)C)C(=O)N2)OC(=O)[C@H](C(C)C)NC1=O | 105 nM | 6.97 | – | – | –
CC1=C(/C=C/C(C)=C/C=C/C(C)=C/C(=O)Nc2ccc(O)cc2)C(C)(C)CCC1 | 48100 nM | – | 4.3 | – | –
COc1ccc(Nc2cc(-c3cnc(N)nc3)nc(N3CCOCC3)n2)cn1 | 2960 nM | 31.5 | – | – | –
COc1ccc(-c2ccc3c(N4CCOCC4)nc(N4C[C@@H](C)O[C@@H](C)C4)nc3n2)cc1CO | 1870 nM | 62.3 | – | – | –
O=C(NOCC1CC1)c1ccc(F)c(F)c1Nc1ccc(I)cc1Cl | 23500 nM | 20.7 | – | – | 13300 nM
CC(NCc1ccc2c(c1)[nH]/c(=N\C(=O)c1ccc(-c3cn[nH]c3)s1)n2CC(C)(C)O)C(C)(C)C (configuration not stated) | 935 nM | 6.2 | – | – | –
Cc1n[nH]c2ccc(-c3cncc(OC[C@@H](N)Cc4c[nH]c5ccccc45)c3)cc12 | 1870 nM | 7.23 | – | – | –
Cc1nc(N)sc1-c1ccnc(Nc2ccc(N3CCOCC3)cc2)n1 | 26400 nM | 29.8 | – | – | –
CCNC(=O)Nc1ccc(-c2nc3c(c(N4CCOC[C@@H]4C)n2)CCN(C2COC2)C3)cc1 | 1180 nM | 60.3 | – | – | –
